Activity calls are given as the source filed them. The calls are words filed in the database; no cut-off is given here.
What was measured:
U-251 = assay: Antiproliferative activity against human U-251MG cells overexpressing DHX33 assessed as inhibition of cell growth measured after 48 hrs by CCK-8 assay; format: functional, cell-based; conditions: U-251, 48 h
[1] = Microsomal stability in human liver microsome assessed as intrinsic clearance; format: ADME; conditions: liver microsomes, read-out: CLH
A549 [2] = assay: Downregulation of MCM2 mRNA expression in human A549 cells by SYBR dye based RT-PCR analysis; format: functional, cell-based
[3] = biological target: T1, Probable ATP-dependent RNA helicase DDX6 (Homo sapiens, UniProt P26196); assay: Inhibition of N-terminal thioredoxin-tagged human recombinant DDX6 transformed in Escherichia coli BL21(DE3)pLysS cells
T1 sequence (P26196 whole entry): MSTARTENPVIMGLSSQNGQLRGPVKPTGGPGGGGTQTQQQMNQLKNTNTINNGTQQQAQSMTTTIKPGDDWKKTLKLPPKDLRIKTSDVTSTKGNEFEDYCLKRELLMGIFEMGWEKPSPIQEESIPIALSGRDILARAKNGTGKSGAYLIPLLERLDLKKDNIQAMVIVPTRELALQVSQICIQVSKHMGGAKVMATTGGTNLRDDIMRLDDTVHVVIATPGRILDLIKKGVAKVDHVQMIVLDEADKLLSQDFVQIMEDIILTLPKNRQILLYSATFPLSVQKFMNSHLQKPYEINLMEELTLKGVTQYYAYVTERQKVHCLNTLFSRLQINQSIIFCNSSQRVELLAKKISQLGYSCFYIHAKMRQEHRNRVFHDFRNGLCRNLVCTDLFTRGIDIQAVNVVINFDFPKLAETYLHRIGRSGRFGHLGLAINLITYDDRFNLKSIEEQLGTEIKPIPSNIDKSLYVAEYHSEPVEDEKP

A549 [4] = assay: Downregulation of MCM3 mRNA expression in human A549 cells by SYBR dye based RT-PCR analysis; format: functional, cell-based
A549 [5] = assay: Downregulation of E2F1 mRNA expression in human A549 cells by SYBR dye based RT-PCR analysis; format: functional, cell-based
A549 [6] = assay: Downregulation of CyclinB2 mRNA expression in human A549 cells by SYBR dye based RT-PCR analysis; format: functional, cell-based
A549 [7] = assay: Downregulation of CyclinE2 mRNA expression in human A549 cells by SYBR dye based RT-PCR analysis; format: functional, cell-based
[8] = biological target: T2, Putative pre-mRNA-splicing factor ATP-dependent RNA helicase DHX32 (Homo sapiens, UniProt Q7L7V1); assay: Inhibition of N-terminal thioredoxin-tagged human recombinant DHX32 transformed in Escherichia coli BL21(DE3)pLysS cells
T2 sequence (Q7L7V1 whole entry): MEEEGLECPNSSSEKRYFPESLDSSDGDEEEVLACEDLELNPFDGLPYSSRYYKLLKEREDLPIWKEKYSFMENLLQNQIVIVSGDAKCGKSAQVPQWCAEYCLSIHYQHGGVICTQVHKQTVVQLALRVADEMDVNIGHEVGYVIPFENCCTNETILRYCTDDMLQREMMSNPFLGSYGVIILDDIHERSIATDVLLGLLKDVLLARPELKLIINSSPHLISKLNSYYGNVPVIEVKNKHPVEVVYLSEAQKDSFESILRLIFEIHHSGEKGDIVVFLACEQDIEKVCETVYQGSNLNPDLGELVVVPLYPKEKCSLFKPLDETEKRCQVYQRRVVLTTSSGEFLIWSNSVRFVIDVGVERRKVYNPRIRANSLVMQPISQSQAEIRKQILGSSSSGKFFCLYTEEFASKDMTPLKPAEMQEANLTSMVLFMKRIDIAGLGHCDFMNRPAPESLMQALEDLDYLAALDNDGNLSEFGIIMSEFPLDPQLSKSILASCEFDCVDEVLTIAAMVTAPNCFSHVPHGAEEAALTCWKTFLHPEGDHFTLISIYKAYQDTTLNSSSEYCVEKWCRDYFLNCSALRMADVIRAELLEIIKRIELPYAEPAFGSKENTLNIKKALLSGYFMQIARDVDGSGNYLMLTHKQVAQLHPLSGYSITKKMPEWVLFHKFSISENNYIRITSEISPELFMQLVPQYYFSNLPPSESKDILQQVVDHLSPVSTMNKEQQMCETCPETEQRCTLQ

[9] = biological target: T3, Probable ATP-dependent RNA helicase DDX59 (Homo sapiens, UniProt Q5T1V6); assay: Inhibition of C-terminal 6xHis-tagged human recombinant DDX59 transformed in Escherichia coli BL21(DE3)pLysS cells
T3 sequence (Q5T1V6 whole entry): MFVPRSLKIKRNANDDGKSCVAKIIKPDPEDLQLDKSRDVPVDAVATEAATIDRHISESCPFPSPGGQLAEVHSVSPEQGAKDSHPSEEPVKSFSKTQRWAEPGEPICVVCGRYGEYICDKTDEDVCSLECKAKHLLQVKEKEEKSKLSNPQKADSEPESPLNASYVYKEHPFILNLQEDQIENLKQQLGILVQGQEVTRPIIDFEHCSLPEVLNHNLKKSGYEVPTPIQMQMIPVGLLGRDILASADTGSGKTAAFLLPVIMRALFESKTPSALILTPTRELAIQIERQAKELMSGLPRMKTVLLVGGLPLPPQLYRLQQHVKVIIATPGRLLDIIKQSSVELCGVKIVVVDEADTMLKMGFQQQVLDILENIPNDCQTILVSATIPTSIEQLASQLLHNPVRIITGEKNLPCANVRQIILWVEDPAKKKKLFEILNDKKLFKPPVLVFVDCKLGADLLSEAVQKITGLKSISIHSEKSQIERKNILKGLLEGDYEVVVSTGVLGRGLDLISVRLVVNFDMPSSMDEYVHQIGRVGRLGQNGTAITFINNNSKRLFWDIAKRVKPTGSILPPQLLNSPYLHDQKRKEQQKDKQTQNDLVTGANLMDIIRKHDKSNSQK

[10] = biological target: T4, ATP-dependent RNA helicase DHX33 (Mus musculus, UniProt Q80VY9); assay: Inhibition of N-terminal/C-terminal 6x His-tagged wild type recombinant mouse DHX33 transformed in Escherichia coli BL21(DE3)pLysS cells
T4 sequence (Q80VY9 whole entry): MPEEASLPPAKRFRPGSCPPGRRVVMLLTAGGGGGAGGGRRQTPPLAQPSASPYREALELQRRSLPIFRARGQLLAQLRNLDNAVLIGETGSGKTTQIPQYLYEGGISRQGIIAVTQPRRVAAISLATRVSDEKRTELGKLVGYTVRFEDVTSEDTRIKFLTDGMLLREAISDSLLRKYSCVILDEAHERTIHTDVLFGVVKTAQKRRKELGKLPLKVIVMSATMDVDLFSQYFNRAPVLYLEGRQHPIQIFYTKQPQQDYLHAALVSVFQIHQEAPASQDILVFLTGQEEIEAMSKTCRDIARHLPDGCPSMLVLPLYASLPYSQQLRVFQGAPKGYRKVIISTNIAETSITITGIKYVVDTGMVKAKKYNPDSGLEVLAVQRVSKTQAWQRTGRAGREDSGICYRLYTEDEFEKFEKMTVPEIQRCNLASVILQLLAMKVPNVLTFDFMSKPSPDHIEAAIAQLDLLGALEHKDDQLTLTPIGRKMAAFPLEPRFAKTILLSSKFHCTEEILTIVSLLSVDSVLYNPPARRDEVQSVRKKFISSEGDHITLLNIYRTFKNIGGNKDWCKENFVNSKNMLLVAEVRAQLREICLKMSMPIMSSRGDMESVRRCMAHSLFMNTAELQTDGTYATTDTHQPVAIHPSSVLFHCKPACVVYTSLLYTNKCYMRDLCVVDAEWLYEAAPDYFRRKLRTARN

A549 [11] = assay: Downregulation of MCM4 mRNA expression in human A549 cells by SYBR dye based RT-PCR analysis; format: functional, cell-based
A549 [12] = assay: Downregulation of FEN1 mRNA expression in human A549 cells by SYBR dye based RT-PCR analysis; format: functional, cell-based
A549 [13] = assay: Downregulation of MCM7 mRNA expression in human A549 cells by SYBR dye based RT-PCR analysis; format: functional, cell-based

SMILES	IC50 (U-251)	further results
COc1ccc2nc(/C(C#N)=C/c3cc(C)n(-c4sc(C)cc4C#N)c3C)[nH]c2c1	0.11 µM	CLint scaled [1]: 290 mL/min/kg
COc1ccc2nc(/C(C#N)=C/c3cc(C)n(-c4oc(C)c(C)c4C#N)c3C)[nH]c2n1	4.08 µM	–
Cc1oc(-n2c(C)cc(/C=C(\C#N)c3nc4ccc(F)cc4[nH]3)c2C)c(C#N)c1C	3.2 µM	–
COc1cncc2nc(/C(C#N)=C/c3cc(C)n(-c4sc(C)c(C)c4C#N)c3C)[nH]c12	4.68 µM	–
COc1cc2nc(/C(C#N)=C/c3cc(C)n(-c4sc(C)cc4C(N)=O)c3C)[nH]c2cn1	0.18 µM	CLint scaled [1]: 140 mL/min/kg
COc1cc2nc(/C(C#N)=C/c3cc(C)n(-c4oc(C)c(C)c4C#N)c3C)[nH]c2cn1	0.07 µM	–
COc1ccc2nc(/C(C#N)=C/c3cc(C)n(-c4oc(C)c(C)c4C#N)c3C)[nH]c2c1	0.54 µM	–
COc1ccc2nc(NC(=O)c3cc(C)n(-c4oc(C)nc4C#N)c3C)[nH]c2c1	0.07 µM	–
Cc1ccc2nc(/C(C#N)=C/c3cc(C)n(-c4oc(C)c(C)c4C#N)c3C)[nH]c2c1	2.44 µM	–
COc1nccc2nc(/C(C#N)=C/c3cc(C)n(-c4sc(C)c(C)c4C#N)c3C)[nH]c12	3.97 µM	–
Cc1oc(-n2c(C)cc(/C=C(\C#N)c3nc4ccccc4[nH]3)c2C)c(C#N)c1C	7.82 µM	Activity (A549 [2]): Active; IC50 [3]: > 4 µM; Activity (A549 [4]): Active; Activity (A549 [5]): Active; Activity (A549 [6]): Active; Activity (A549 [7]): Active; IC50 [8]: > 5 µM; IC50 [9]: > 5 µM; IC50 [10]: 0.52 µM; Activity (A549 [11]): Active; Activity (A549 [12]): Active; Activity (A549 [13]): Active
COc1cc2nc(/C(C#N)=C/c3cc(C)n(-c4sc(C)c(C)c4C#N)c3C)[nH]c2cn1	0.03 µM	–
COc1cccc2nc(/C(C#N)=C/c3cc(C)n(-c4oc(C)c(C)c4C#N)c3C)[nH]c12	> 10 µM	–
COc1cc2nc(/C(C#N)=C/c3cc(C)n(-c4oc(C)c(C)c4C#N)c3C)[nH]c2cc1OC	1.54 µM	–
COc1cc2nc(/C(C#N)=C/c3cc(C)n(-c4sc(C)cc4C#N)c3C)[nH]c2cn1	0.02 µM	CLint scaled [1]: 187 mL/min/kg

— ChEMBL document CHEMBL5390231, “Development of small molecule inhibitors targeting RNA helicase DHX33 as anti-cancer agents” (Bioorg Med Chem Lett, 2023)
